{"source": "patent US9783518B2", "about": "“Therapeutic agent and treatment method for ameliorating uremia” (Toray Industries, Inc., priority 2005, dated 2017)", "key": {"HUS [1]": {"system": "HUS", "details": "in vivo; cited from earlier work"}, "[2]": {"system": "streptozotocin-induced diabetic nephropathy rats", "details": "cited from earlier work"}, "[3]": {"system": "renal function impairment induced by uninephrectomy, high sodium loading and protein loading", "details": "cited from earlier work"}, "[4]": {"system": "Thy-1-induced nephritis models", "details": "prophylactic administration before induction of nephritis; cited from earlier work"}, "HUS [5]": {"system": "HUS", "details": "one case of HUS; cited from earlier work"}, "[6]": {"system": "cats with chronic renal failure", "assay": "Blood biochemical analysis and urinalysis (BUN, serum Cre, glucose) in cats with chronic renal failure", "format": "in vivo, cat", "details": "Case-F, male cat 11 y, diabetic nephropathy; protamine zinc insulin 2 units/BID, 2 months", "method": "Testing methods for the patients showing uremia caused by chronic renal failure, employed in Example 4 or later, will now be described. The criteria and evaluation items for the cats and dogs with chronic renal failure are as follows: Diagnosis of uremia and chronic renal failure were performed totally taking clinical findings (including findings of uremia) and the results of the blood test, blood biochemical analysis and urinalysis into consideration. As the clinical findings of uremia, existence and degree of polydipsia and diuresis, dehydration, anorexia, weight loss, vomiting symptom and state of dehydration were observed. Existence of chronic renal failure was judged based on the serum Cre value as generally employed. As reference data for grasping the degree of progress of chronic renal failure, BUN value was also monitored.\nIn the blood test, RBC, WBC, PCV, Hg and PLT were measured. In the blood biochemical analysis, TP, Tcho, AST, ALT, ALP, Tbil, BUN, creatinine, calcium, inorganic phosphorus, glucose, sodium ion, potassium ion and chloride ion were measured. In the urinalysis, protein amount, pH, occult blood, bilirubin and glucose were measured. To eliminate the circadian rhythm and influence by meals on the values of blood biochemical markers, every blood collection was carried out in the morning before feeding (at fasting).\nAs a more specific criterion for chronic renal failure in cats and dogs in the present Examples, a serum Cre value of 1.4 mg/dL in the blood test was employed. Serum Cre value was measured by creatinine deaminase-amidohydrolase method, and the BUN value as reference data for grasping the degree of progress of chronic renal failure was measured by urease-GLDH method.\nAdministration of beraprost sodium was conducted by orally administering the tablet with a content of 150 μg/tablet (Example 1) twice a day (300 μg/head/day). The administration was conducted every day and continued basically for 6 months, and in cases where the owner desired, the administration was continued even after the test period. The Examples of the present invention include both cases where the dosing period was less than 6 months and more than 6 months."}}}
{"compound": "CCCCC[C@H](O)/C=C/[C@@H]1[C@H]2C/C(=C/CCCC(=O)O)O[C@H]2C[C@H]1O", "note": "[PGI2, prostaglandin I2]", "values": [{"measurement": "progress of HUS", "setting": "HUS [1]", "result": "does not have an activity to inhibit the progress of HUS"}]}
{"compound": "CCC#CC[C@H](C)[C@H](O)C#C[C@@H]1[C@H]2C/C(=C/COCC(=O)O)C[C@H]2C[C@H]1O", "note": "[cicaprost]", "values": [{"measurement": "renal function impairment", "setting": "[2]", "result": "activity to reduce the renal function impairment"}, {"measurement": "renal function impairment", "setting": "[3]", "result": "activity to reduce the renal function impairment"}]}
{"compound": "CC#CCC(C)[C@H](O)/C=C/[C@@H]1[C@H]2C/C(=C/CCCC(=O)O)C[C@H]2C[C@H]1O", "note": "(stereo partly drawn) [iloprost]", "values": [{"measurement": "urinary protein", "setting": "[4]", "result": "decreased"}, {"measurement": "improvement of the serum Cre value", "setting": "HUS [5]", "result": "effective"}]}
{"compound": "insulin: protamine zinc insulin for treating diabetes", "values": [{"measurement": "fasting blood glucose", "setting": "[6]", "result": 100, "unit": "mg/dL"}]}
